Test results as given in ChEMBL document CHEMBL4190183 (Medchemcomm, 2016).

test system: not listed separately; experiment: Retention time of the compound by LC-MS/MS analysis; format: physicochemical; conditions: not given

SMILES | Retention_time [min]
OC(Cn1cncn1)(Cn1cncn1)c1ccc(F)cc1F [FLUCONAZOLE] | 2.08

target: T1, DNA ligase 1 (Homo sapiens, UniProt P18858); experiment: Inhibition of human DNA ligase 1 expressed in Escherichia coli BL21(DE3)RP cells assessed as reduction in fluorescently labelled ds nicked DNA substrate ligation at 100 uM after 30 mins by urea gel based imaging method relative to control; conditions: not given
T1 sequence (P18858 whole entry): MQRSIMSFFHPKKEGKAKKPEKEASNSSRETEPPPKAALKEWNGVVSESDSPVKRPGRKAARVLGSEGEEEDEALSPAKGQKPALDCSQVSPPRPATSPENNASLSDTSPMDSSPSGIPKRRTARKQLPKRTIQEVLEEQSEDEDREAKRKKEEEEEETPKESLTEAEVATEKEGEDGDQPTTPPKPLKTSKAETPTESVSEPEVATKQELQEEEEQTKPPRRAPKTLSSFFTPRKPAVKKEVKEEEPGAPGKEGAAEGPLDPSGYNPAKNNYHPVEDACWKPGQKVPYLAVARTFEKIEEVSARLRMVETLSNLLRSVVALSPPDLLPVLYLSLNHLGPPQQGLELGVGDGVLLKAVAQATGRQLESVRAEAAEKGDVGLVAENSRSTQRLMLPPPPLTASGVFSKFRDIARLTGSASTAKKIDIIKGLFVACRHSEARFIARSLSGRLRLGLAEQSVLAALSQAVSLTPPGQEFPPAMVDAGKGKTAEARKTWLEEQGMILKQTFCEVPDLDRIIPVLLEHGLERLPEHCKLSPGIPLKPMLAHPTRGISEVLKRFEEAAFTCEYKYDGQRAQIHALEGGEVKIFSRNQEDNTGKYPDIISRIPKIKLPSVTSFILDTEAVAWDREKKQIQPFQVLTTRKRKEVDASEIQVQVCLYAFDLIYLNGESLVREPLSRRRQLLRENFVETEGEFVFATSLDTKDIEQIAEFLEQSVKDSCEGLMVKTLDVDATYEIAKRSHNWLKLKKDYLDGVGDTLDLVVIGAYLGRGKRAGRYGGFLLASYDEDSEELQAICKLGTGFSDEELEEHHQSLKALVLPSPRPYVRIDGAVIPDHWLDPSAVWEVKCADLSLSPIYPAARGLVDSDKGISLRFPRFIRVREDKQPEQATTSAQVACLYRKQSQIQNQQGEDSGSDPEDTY

SMILES | inhibition [%]
CCOC(=O)C1=C(C)NC(=O)NC1c1cc(C)c(O)c(/C=N/NC(N)=O)c1 (stereo not drawn) | 64.3
CCOC(=O)C1=C(C)NC(=O)NC1c1cc(C=O)c(O)c(C(C)(C)C)c1 (stereo not drawn) | 73.6
CCOC(=O)C1=C(C)NC(=O)NC1c1cc(/C=N/NC(=S)Nc2ccccc2)c(O)c(C(C)(C)C)c1 (stereo not drawn) | 88.1
CCOC(=O)C1=C(C)NC(=S)NC1c1cc(/C=N/NC(=O)Nc2ccccc2)c(O)c(C(C)(C)C)c1 (stereo not drawn) | 80.9
CCOC(=O)C1=C(C)NC(=O)NC1c1cc(/C=N/NC(=S)NC)c(O)c(C(C)(C)C)c1 (stereo not drawn) | 80.8
CCOC(=O)C1=C(C)NC(=S)NC1c1cc(C)c(O)c(/C=N/NC(=O)Nc2ccc(Cl)cc2)c1 (stereo not drawn) | 86.7
CCOC(=O)C1=C(C)NC(=O)NC1c1cc(C)c(O)c(/C=N/NC(=S)NC)c1 (stereo not drawn) | 80.4
CCOC(=O)C1=C(C)NC(=O)NC1c1cc(/C=N/NC(N)=S)c(O)c(C(C)(C)C)c1 (stereo not drawn) | 80.4
CCOC(=O)C1=C(C)NC(=S)NC1c1cc(/C=N/NC(=S)Nc2ccccc2)c(O)c(C(C)(C)C)c1 (stereo not drawn) | 66.8

test system: A549; experiment: Cytotoxicity against human A549 cells assessed as cell death at 10 uM after 48 hrs by MTT assay relative to control; format: functional; conditions: not given

SMILES | Activity [%]
CCOC(=O)C1=C(C)NC(=O)NC1c1cc(C)c(O)c(/C=N/NC(N)=O)c1 (stereo not drawn) | 7
CCOC(=O)C1=C(C)NC(=O)NC1c1cc(C=O)c(O)c(C(C)(C)C)c1 (stereo not drawn) | 25.4
CCOC(=O)C1=C(C)NC(=O)NC1c1cc(/C=N/NC(=S)Nc2ccccc2)c(O)c(C(C)(C)C)c1 (stereo not drawn) | 48.7
CCOC(=O)C1=C(C)NC(=S)NC1c1cc(/C=N/NC(=O)Nc2ccccc2)c(O)c(C(C)(C)C)c1 (stereo not drawn) | 26.8
CCOC(=O)C1=C(C)NC(=O)NC1c1cc(/C=N/NC(=S)NC)c(O)c(C(C)(C)C)c1 (stereo not drawn) | 27.3
CCOC(=O)C1=C(C)NC(=S)NC1c1cc(C)c(O)c(/C=N/NC(=O)Nc2ccc(Cl)cc2)c1 (stereo not drawn) | 12.8
CCOC(=O)C1=C(C)NC(=O)NC1c1cc(C)c(O)c(/C=N/NC(=S)NC)c1 (stereo not drawn) | 14
CCOC(=O)C1=C(C)NC(=O)NC1c1cc(/C=N/NC(N)=S)c(O)c(C(C)(C)C)c1 (stereo not drawn) | 17
CCOC(=O)C1=C(C)NC(=S)NC1c1cc(/C=N/NC(=S)Nc2ccccc2)c(O)c(C(C)(C)C)c1 (stereo not drawn) | 29.6

test system: DLD-1; experiment: Cytotoxicity against human DLD1 cells assessed as cell death at 10 uM after 48 hrs by MTT assay relative to control; format: functional; conditions: not given

SMILES | Activity [%]
CCOC(=O)C1=C(C)NC(=O)NC1c1cc(C)c(O)c(/C=N/NC(N)=O)c1 (stereo not drawn) | -3
CCOC(=O)C1=C(C)NC(=O)NC1c1cc(C=O)c(O)c(C(C)(C)C)c1 (stereo not drawn) | 8.1
CCOC(=O)C1=C(C)NC(=O)NC1c1cc(/C=N/NC(=S)Nc2ccccc2)c(O)c(C(C)(C)C)c1 (stereo not drawn) | 30
CCOC(=O)C1=C(C)NC(=S)NC1c1cc(/C=N/NC(=O)Nc2ccccc2)c(O)c(C(C)(C)C)c1 (stereo not drawn) | 17.6
CCOC(=O)C1=C(C)NC(=O)NC1c1cc(/C=N/NC(=S)NC)c(O)c(C(C)(C)C)c1 (stereo not drawn) | 34.1
CCOC(=O)C1=C(C)NC(=S)NC1c1cc(C)c(O)c(/C=N/NC(=O)Nc2ccc(Cl)cc2)c1 (stereo not drawn) | 1
CCOC(=O)C1=C(C)NC(=O)NC1c1cc(C)c(O)c(/C=N/NC(=S)NC)c1 (stereo not drawn) | 18.1
CCOC(=O)C1=C(C)NC(=O)NC1c1cc(/C=N/NC(N)=S)c(O)c(C(C)(C)C)c1 (stereo not drawn) | 5.5
CCOC(=O)C1=C(C)NC(=S)NC1c1cc(/C=N/NC(=S)Nc2ccccc2)c(O)c(C(C)(C)C)c1 (stereo not drawn) | 67.6

target: T1, DNA ligase 1; experiment: Residual activity of human DNA ligase 1 expressed in Escherichia coli BL21(DE3)RP cells assessed as DNA ligation at 100 uM using fluorescently labelled ds nicked DNA as substrate after 30 mins by urea gel based imaging method relative to control; conditions: not given

SMILES | ligation [%]
CCOC(=O)C1=C(C)NC(=O)NC1c1cc(C)c(O)c(/C=N/NC(N)=O)c1 (stereo not drawn) | 35.7
CCOC(=O)C1=C(C)NC(=O)NC1c1cc(C=O)c(O)c(C(C)(C)C)c1 (stereo not drawn) | 26.4
CCOC(=O)C1=C(C)NC(=O)NC1c1cc(/C=N/NC(=S)Nc2ccccc2)c(O)c(C(C)(C)C)c1 (stereo not drawn) | 12
CCOC(=O)C1=C(C)NC(=S)NC1c1cc(/C=N/NC(=O)Nc2ccccc2)c(O)c(C(C)(C)C)c1 (stereo not drawn) | 19.1
CCOC(=O)C1=C(C)NC(=O)NC1c1cc(/C=N/NC(=S)NC)c(O)c(C(C)(C)C)c1 (stereo not drawn) | 19.2
CCOC(=O)C1=C(C)NC(=S)NC1c1cc(C)c(O)c(/C=N/NC(=O)Nc2ccc(Cl)cc2)c1 (stereo not drawn) | 13.4
CCOC(=O)C1=C(C)NC(=O)NC1c1cc(C)c(O)c(/C=N/NC(=S)NC)c1 (stereo not drawn) | 19.6
CCOC(=O)C1=C(C)NC(=O)NC1c1cc(/C=N/NC(N)=S)c(O)c(C(C)(C)C)c1 (stereo not drawn) | 19.6
CCOC(=O)C1=C(C)NC(=S)NC1c1cc(/C=N/NC(=S)Nc2ccccc2)c(O)c(C(C)(C)C)c1 (stereo not drawn) | 33.2

test system: HEK293; experiment: Cytotoxicity against HEK293 cells assessed as cell death at 10 uM after 48 hrs by MTT assay relative to control; format: cell-based; conditions: human, hek293, 48 h

SMILES | Activity [%]
CCOC(=O)C1=C(C)NC(=O)NC1c1cc(C)c(O)c(/C=N/NC(N)=O)c1 (stereo not drawn) | 15.7
CCOC(=O)C1=C(C)NC(=O)NC1c1cc(C=O)c(O)c(C(C)(C)C)c1 (stereo not drawn) | 10.7
CCOC(=O)C1=C(C)NC(=O)NC1c1cc(/C=N/NC(=S)Nc2ccccc2)c(O)c(C(C)(C)C)c1 (stereo not drawn) | 48.3
CCOC(=O)C1=C(C)NC(=S)NC1c1cc(/C=N/NC(=O)Nc2ccccc2)c(O)c(C(C)(C)C)c1 (stereo not drawn) | 53.3
CCOC(=O)C1=C(C)NC(=O)NC1c1cc(/C=N/NC(=S)NC)c(O)c(C(C)(C)C)c1 (stereo not drawn) | 24.6
CCOC(=O)C1=C(C)NC(=S)NC1c1cc(C)c(O)c(/C=N/NC(=O)Nc2ccc(Cl)cc2)c1 (stereo not drawn) | 42.6
CCOC(=O)C1=C(C)NC(=O)NC1c1cc(C)c(O)c(/C=N/NC(=S)NC)c1 (stereo not drawn) | 22.7
CCOC(=O)C1=C(C)NC(=O)NC1c1cc(/C=N/NC(N)=S)c(O)c(C(C)(C)C)c1 (stereo not drawn) | 17
CCOC(=O)C1=C(C)NC(=S)NC1c1cc(/C=N/NC(=S)Nc2ccccc2)c(O)c(C(C)(C)C)c1 (stereo not drawn) | 54.1

test system: HepG2; experiment: Cytotoxicity against human HepG2 cells assessed as cell death at 10 uM after 48 hrs by MTT assay relative to control; format: functional; conditions: not given

SMILES | Activity [%]
CCOC(=O)C1=C(C)NC(=O)NC1c1cc(C)c(O)c(/C=N/NC(N)=O)c1 (stereo not drawn) | 9.7
CCOC(=O)C1=C(C)NC(=O)NC1c1cc(C=O)c(O)c(C(C)(C)C)c1 (stereo not drawn) | 11.4
CCOC(=O)C1=C(C)NC(=O)NC1c1cc(/C=N/NC(=S)Nc2ccccc2)c(O)c(C(C)(C)C)c1 (stereo not drawn) | 43
CCOC(=O)C1=C(C)NC(=S)NC1c1cc(/C=N/NC(=O)Nc2ccccc2)c(O)c(C(C)(C)C)c1 (stereo not drawn) | 26
CCOC(=O)C1=C(C)NC(=O)NC1c1cc(/C=N/NC(=S)NC)c(O)c(C(C)(C)C)c1 (stereo not drawn) | 23.7
CCOC(=O)C1=C(C)NC(=S)NC1c1cc(C)c(O)c(/C=N/NC(=O)Nc2ccc(Cl)cc2)c1 (stereo not drawn) | 22.8
CCOC(=O)C1=C(C)NC(=O)NC1c1cc(C)c(O)c(/C=N/NC(=S)NC)c1 (stereo not drawn) | 33.1
CCOC(=O)C1=C(C)NC(=O)NC1c1cc(/C=N/NC(N)=S)c(O)c(C(C)(C)C)c1 (stereo not drawn) | 11.1
CCOC(=O)C1=C(C)NC(=S)NC1c1cc(/C=N/NC(=S)Nc2ccccc2)c(O)c(C(C)(C)C)c1 (stereo not drawn) | 26.5

test system: MDA-MB-231; experiment: Cytotoxicity against human MDA-MB-231 cells assessed as cell death at 10 uM after 48 hrs by MTT assay relative to control; format: functional; conditions: not given

SMILES | Activity [%]
CCOC(=O)C1=C(C)NC(=O)NC1c1cc(C)c(O)c(/C=N/NC(N)=O)c1 (stereo not drawn) | 13.9
CCOC(=O)C1=C(C)NC(=O)NC1c1cc(C=O)c(O)c(C(C)(C)C)c1 (stereo not drawn) | 20.7
CCOC(=O)C1=C(C)NC(=O)NC1c1cc(/C=N/NC(=S)Nc2ccccc2)c(O)c(C(C)(C)C)c1 (stereo not drawn) | 50.4
CCOC(=O)C1=C(C)NC(=S)NC1c1cc(/C=N/NC(=O)Nc2ccccc2)c(O)c(C(C)(C)C)c1 (stereo not drawn) | 7
CCOC(=O)C1=C(C)NC(=O)NC1c1cc(/C=N/NC(=S)NC)c(O)c(C(C)(C)C)c1 (stereo not drawn) | 29.7
CCOC(=O)C1=C(C)NC(=S)NC1c1cc(C)c(O)c(/C=N/NC(=O)Nc2ccc(Cl)cc2)c1 (stereo not drawn) | 20.2
CCOC(=O)C1=C(C)NC(=O)NC1c1cc(C)c(O)c(/C=N/NC(=S)NC)c1 (stereo not drawn) | 31
CCOC(=O)C1=C(C)NC(=O)NC1c1cc(/C=N/NC(N)=S)c(O)c(C(C)(C)C)c1 (stereo not drawn) | 21.1
CCOC(=O)C1=C(C)NC(=S)NC1c1cc(/C=N/NC(=S)Nc2ccccc2)c(O)c(C(C)(C)C)c1 (stereo not drawn) | 26.1

test system: HCT-116; experiment: Cytotoxicity against human HCT116 cells assessed as cell death at 10 uM after 48 hrs by MTT assay relative to control; format: functional; conditions: not given

SMILES | Activity [%]
CCOC(=O)C1=C(C)NC(=O)NC1c1cc(C)c(O)c(/C=N/NC(N)=O)c1 (stereo not drawn) | 4.3
CCOC(=O)C1=C(C)NC(=O)NC1c1cc(C=O)c(O)c(C(C)(C)C)c1 (stereo not drawn) | 1.8
CCOC(=O)C1=C(C)NC(=O)NC1c1cc(/C=N/NC(=S)Nc2ccccc2)c(O)c(C(C)(C)C)c1 (stereo not drawn) | 43.2
CCOC(=O)C1=C(C)NC(=S)NC1c1cc(/C=N/NC(=O)Nc2ccccc2)c(O)c(C(C)(C)C)c1 (stereo not drawn) | 17.9
CCOC(=O)C1=C(C)NC(=O)NC1c1cc(/C=N/NC(=S)NC)c(O)c(C(C)(C)C)c1 (stereo not drawn) | 22.5
CCOC(=O)C1=C(C)NC(=S)NC1c1cc(C)c(O)c(/C=N/NC(=O)Nc2ccc(Cl)cc2)c1 (stereo not drawn) | 50.8
CCOC(=O)C1=C(C)NC(=O)NC1c1cc(C)c(O)c(/C=N/NC(=S)NC)c1 (stereo not drawn) | 17.7
CCOC(=O)C1=C(C)NC(=O)NC1c1cc(/C=N/NC(N)=S)c(O)c(C(C)(C)C)c1 (stereo not drawn) | 7.8
CCOC(=O)C1=C(C)NC(=S)NC1c1cc(/C=N/NC(=S)Nc2ccccc2)c(O)c(C(C)(C)C)c1 (stereo not drawn) | 49.9
